Data reported in patent US6747061B2, “N-substituted dithiocarbamates for the treatment of biological disorders” (AtheroGenics, Inc., priority 2000, dated 2004).
Read-outs that look alike come from different tables or passages of the source.

Key:
[1] = system: eotaxin; assay: Eotaxin assay: enzyme immunoassay of TNF-α and IL-4 induced eotaxin expression in BEAS-2B cells; assay type: cell-based; conditions: Homo sapiens, TNF 10 ng/ml + IL-4, approximately 16 hours
Description: The eotaxin assay is an enzyme immunoassay to measure tumor necrosis factor alpha (TNF-α) and interleukin-4 (IL-4) induced expression of eotaxin in a human epithelial cell line (BEAS-2B).
BEAS-2B cells purchased from ATCC and maintained in DMEM/F12 plus 10% serum and penicillin plus streptomycin. In a typical experiment, cells were seeded in 96-well plates. The next day cells were stimulated with TNF (10 ng/ml)+IL-4 ([…]) in the presence or absence of compounds dissolved in dimethylsulphoxide (DMSO) in DMEM/F12 plus 1% rabbit serum albumin (RSA). To establish a dose curve for each compound, three concentrations in 2 fold increments were used. Cells were exposed to cytokines and compounds for approximately 16 hours. The next day, the cells were examined under microscope to score for visual signs of toxicity. The culture media was used to measure eotaxin level.
100 μl of anti-human eotaxin monoclonal antibody (3 μg/ml) purchased from R & D Systems was used to coat 96-well plates overnight at room temperature. […] 2N sulphuric acid stopped the color development and data were collected by a microplate reader set at O.D. 450 nm. The results were expressed as the percentage of control sample (cells stimulated by TNF without any compound).

[2] = system: SNU-C5 colorectal carcinoma cells; assay: Anti-proliferative effect on SNU-C5 cells (CellTiter96); assay type: cell-based; conditions: read-out: proliferation, percent of control; for activity at 1 µM: NDE 1 μM; for activity at 10 µM: NDE 10 μM; for activity at 100 µM: NDE 100 μM
Description: All primary cells and cell lines were commercially available. The transformed cell lines were grown in Dulbecco's Modified Eagle Media supplemented with 2 mM L-glutamine, 50 I.U. penicillin, 50 μg/ml streptomycin, nonessential amino acids and 10% heat-inactivated fetal bovine serum. HASM, HAEC and NHBE cells were cultured exactly as described by the commercial provider (Clonetics, San Diego, Calif.). All cell lines were grown at 37° C. in 5% CO2, with the media being changed every 48 hours.
For the experimental assays, cells were plated in 96-well plates and grown until ˜35% confluency was achieved. For the transformed cell lines, cells were plated at low density and grown for 72 hours prior to being stimulated, whereas the non-transformed cells were plated at a higher density and grown for 24 hours prior to being stimulated.
Cells were treated with dithiocarbamate (0.1-100 μM)±5FU (0.01-10 μM) and retreated after 48 hours when media was changed. Cell growth was assessed using the CellTiter96® assay system from Promega (Madison, Wis.). Each experimental condition was performed in triplicate or quadruplicate, with the number of experiments for each cell line being three.
Statistical significance was assessed using an ANOVA with the appropriate post-hoc analysis as well as Students t-tests. *=p<0.05 when compared to control-treated (DMSO) cells. #=p<0.05 when compared to 5FU-treated cells.

[3] = system: VCAM-1; assay: VCAM-1 assay: enzyme immunoassay of TNF-α induced VCAM-1 expression in endothelial cells; assay type: cell-based, Human; conditions: Homo sapiens, Endothelial cell; HAEC, TNF-α 1 ng/ml, approximately 16 hours; read-out: VCAM-1 IC50
Description: The VCAM-1 assay is an enzyme immunoassay to detect tumor necrosis factor alpha (TNF-α) induced Vascular Adhesion Molecule (VCAM-1) expression in endothelial cells.
Human endothelial cells (HAEC) were purchased from Clonetics and maintained in EGM media (Clonetics) supplemented with 5% fetal bovine serum (FBS). In a typical experiment, cells were seeded in 96-well plates. The next day cells were stimulated with TNF-α (1 ng/ml) purchased from Boehringer Mannheim in the presence or absence of compounds dissolved in dimethylsulphoxide (DMSO). To establish a dose curve for each compound, four concentrations in 2 fold increments were used. Cells were exposed to TNF-α and compounds for approximately 16 hours. The next day, cells were examined under microscope to score for visual signs of toxicity.
Media was discarded and the cells were washed once with Hanks buffered saline solution (HBSS)/phosphate buffered solution (PBS) 91:1). Primary mouse monoclonal antibody against VCAM-1 purchased from Southern Biotechnology Associates (0.25 μg/ml in HBSS/PBS+5% FBS) was added and incubated at 37° C. for 30 minutes. Cells were washed with HBSS/PBS three times, and secondary antibody horse radish peroxidase (HRP)-conjugated goat anti-mouse IgG purchased from Southern Biotechnology Associates (1:500 in HBSS/PBS+5% FBS) was added and incubated at 37° C. for 30 minutes. Cells were washed with HBSS/PBS four times and peroxidase substrate 3.3′,5,5′-tetramethyl-benzidine (TMB) was added and incubated in the dark at room temperature until there was adequate blue color development. The length of incubation time was typically 5-15 minutes. 2 N sulfuric acid was added to stop the color development and the data was collected by reading the absorbance at O.D. 450 nm. The result was expressed as the percentage of control sample (cells stimulated by TNF without any compound).

IC50 [1]: 6 µM
IC50 [3]: 1.5 µM
Compound: COC(=O)CCCSC(=S)NCC1CCCO1 (centres unmarked) [NDE, 4-(tetrahydrofuran-2-ylmethylthiocarbamoylsulfanyl)-butyric acid methyl ester]
activity at 1 µM ([2]; 24 HOURS): 138 ± 24.2%
activity at 1 µM ([2]; 48 HOURS): 105 ± 7.42%
activity at 1 µM ([2]; 72 HOURS): 127 ± 16.4%
activity at 10 µM ([2]; 24 HOURS): 93.4 ± 15.9%
activity at 10 µM ([2]; 48 HOURS): 70.5 ± 8.42%
activity at 10 µM ([2]; 72 HOURS): 59.2 ± 4.1%
activity at 100 µM ([2]; 24 HOURS): 60 ± 10.8%
activity at 100 µM ([2]; 48 HOURS): 26.3 ± 8.64%
activity at 100 µM ([2]; 72 HOURS): 13.6 ± 1.31%
